Assay results as given in US20030113940A1, “Antibodies specific for nanotubes and related methods and compositions” (priority 2001, published 2003).
Where two headings read alike, the source gives them in different places.

Experiments:
[1] = Air sensitivity; format: physicochemical
Excerpt: While previous work reported in the literature performed HPLC under aerobic conditions, (see for example Funasaka et al. 1995) these studies determined that anaerobic controls better preserved the fraction of Gd@C82 in solution. […] The fraction containing the Gd@C82 was identified using MS. The solubility of fullerenes in o-xylene is about three times that of toluene and this greatly increases the ratio of fullerenes in solution to those retained on the stationary phase. Therefore, the capacity or amount of fullerenes purified per injection was very large. Each injection contained 2 ml of saturated fullerene o-xylene solution (about 30 mg of fullerenes).

[2] = test system: anti-fullerene antibodies binding to 1-RSA; experiment: ELISA inhibition of antibody binding to 1-RSA; parameters: species or system mouse
Experimental: After a total of three immunizations at 3-week intervals, confirmation of an immune response was determined by direct ELISA in which polystyrene plates (Corning) were coated with the 1-RSA conjugate (0.5 mg/ml in 0.1 M NaHCO3, pH 9), and binding of preimmune and immune sera were determined by standard procedures. Development was with horseradish peroxidase-labeled goat anti-mouse IgG (Sigma), which tested negative for crossreaction with an IgM preparation. The substrate used was o-phenylenediamine.
(§1) Specificity of the response was determined by two procedures: double diffusion in agar (22) and competitive inhibition, as determined by ELISA using RSA and BSA conjugates of the fullerenes, as well as the oligo lysine derivatives. The fullerenes themselves were not soluble enough in aqueous solutions.
The adenosine conjugate had been synthesized using the same strategy used for the fullerenes, i.e., linkage to the epsilon amino groups of the lysines via an N-hydroxysuccinimide ester derivative.
Specificity also was determined by ELISA inhibition studies (FIG. 6). Binding to 1-RSA was inhibited by 1-RSA, 1-BSA, 1-TG, 3-pentalysine, 2-pentalysine, and 1-pentalysine. Inhibition by 2-pentalysine is additional evidence for nonparticipation of the linker group, i.e., specificity for the C60 moiety. […]

[3] = test system: human keratinocytes; details: after 6 hours; 32,000 dpm, 1.3 μM; cited from earlier work
[4] = test system: human keratinocytes and fibroblasts; details: C60 suspension; cited from earlier work
[5] = test system: anti-fullerene antibodies (immune serum); experiment: Specificity of the immune response by double diffusion in agar; format: binding, mouse
Experimental: as §1
Specificity of the immune response first was determined by double diffusion in agar.
Confluent lines of precipitation were seen associated with wells 1-5 with a spur between wells 2 and 3, pointing toward 3, i.e., toward 1-BSA. This finding is evidence of a population of antibodies reactive with both 1 and 2, with an additional population specific for the carrier protein of the immunogen, 1-TG. The identity of precipitation with 1 and 2 is evidence for the lack of participation of the linker group, which is missing from 2. […] Anti-TG also could be detected by ELISA (below).

[6] = Atomic force microscopy of antibody binding to SWNT
Experimental: C60 Antibodies on SWNTs were directly imaged by atomic force microscopy. SWNT ropes on mica were initially imaged, the surface was then exposed to antibody solution, and finally; the same SWNT was imaged again in air. This sequence distinguishes any preexisting surface particles from bound antibodies. Three drops of aqueous SWNT suspension (0.064 mg/mL in Triton 100×surfactant, from Tubes@Rice) were spun onto a freshly cleaved mica surface. One drop of fullerene-specific antibody(0.00125 mg/mL in 10 mM phosphate buffer, 150 mM NaCl, pH 7.3) was then deposited onto the surface. Liquid was removed by glass piper after 8 min, and the sample was dried in air. The sample was then washed with 60 drops of water while spinning to remove weakly bound, physisorbed antibody layers. The same SWNT was then imaged in FIG. 24. A significant number of objects are adsorbed on the nanotube, in previously clean regions, and on the mica substrate. […] The mica antibody images are similar in height, width, and dimpled appearance to those previously reported for monoclonal mouse IgG1 on mica (10).
In a separate experiment, we mixed an aqueous SWNT suspension with an anti-fullerene antibody solution and then imaged the SWNTs on mica. One drop of antibody solution (0.25 mg/mL) was mixed with 5 mL of SWNT suspension (0.064 mg/ml) and cooled at 5° C. for 2 h. Three drops of this mixture were spun on a freshly cleaved […] and imaged without washing.

## Gd@C82(OH)x
[1]
  air sensitivity: does not appear to be air sensitive

## rabbit serum albumin [RSA]
[2]
  inhibition of binding to 1-RSA (ELISA): No inhibition

## c12c3c4c5c1c1c6c7c2c2c8c3c3c9c4c4c%10c5c5c1c1c6c6c%11c7c2c2c7c8c3c3c8c9c4c4c9c%10c5c5c1c1c6c6c%11c2c2c7c3c3c8c4c4c9c5c1c1c6c2c3c41 [Compound C60, fullerene-C60]
[3]
  applied radioactivity taken up by the keratinocytes: approximately 50%
[4]
  effect on the rate of thymidine uptake: no effect

## bovine thyroglobulin [TG]
[2]
  inhibition of binding to 1-RSA (ELISA): No inhibition
[5]; TG solution diluted 5-fold
  precipitation in double diffusion in agar: line of precipitation was seen
[5]; undiluted antigen solutions
  precipitation in double diffusion in agar: no visible precipitate

B1: fullerene-specific antibody: monoclonal antibody produced by hybridoma 1-10F-8A (ATCC PTA-279) (antibody, V domains shown)
VH: MGCSWGMLFLLSITAGVHCQVHLQQSGPELVRPGASVKISCKTSGYVFSSSWMNWVKQRPGQGLKWIGRIYPGNGNTNYNEKFKGKATLTADKSSNTAYMQLSSLTSVDSAVYFCATSSAYWGQGTLLTVSA
VL: DIQMTQTTSSLSASLGDRVTFSCSASQDINNYLNWYQQKPDGTIKLLIYYTSSLRSGVPSRFSGSGSGTDYSLTINNLEPEDIATYFCQQYSRLPFTFGSGTKLEIKRK
modifications: Mouse [murine]; Mouse
[6]
  binding of antibody to SWNT (AFM image): antibodies on the nanotube and on mica
[6]; listed as anti-fullerene/anti-nanotube antibody
  binding of antibody to SWNT (AFM image): bound to a nanotube
[6]; listed as monoclonal IgG C60-specific antibody
  binding of antibody to SWNT (AFM image): specifically binds
